# Legend:
# [1] = tested on: sodium channel; test: Guanidine influx assay (14C-guanidine radiotracer flux) in a known cell line that expresses a sodium channel; assay type: cell-based, human or rat
# Excerpt: This example describes an in vitro assay for testing and profiling test agents against human or rat sodium channels stably expressed in cells of either an endogenous or recombinant origin.
# The guanidine influx assay is a radiotracer flux assay used to determine ion flux activity of sodium channels in a high-throughput microplate-based format. The assay uses ^14C-guanidine hydrochloride in combination with various known sodium channel modulators, to assay the potency of test agents. Potency is determined by an IC50 calculation. Selectivity is determined by comparing potency of the compound for the channel of interest to its potency against other sodium channels (also called ‘selectivity profiling’).
# Each of the test agents is assayed against cells that express the sodium channel of interest. Voltage gated sodium channels are either TTX sensitive or insensitive. This property is useful when evaluating the activities of a channel of interest when it resides in a mixed population with other sodium channels. The following Table 1 lists certain cell lines which are useful in screening for a certain sodium channel activity in the presence or absence of TTX.
# It is also possible to employ recombinant cells expressing these sodium channels.
# Cells expressing the channel of interest are grown according to the supplier or in the case of a recombinant cell in the presence of selective growth media such as G418 (Gibco/Invitrogen). The cells are disassociated from the culture dishes with an enzymatic solution (1×) Trypsin/EDTA (Gibco/Invitrogen) and analyzed for density and viability using haemocytometer (Neubauer). Disassociated cells are washed and resuspended in their culture media then plated into Scintiplates (Beckman Coulter Inc.) (approximately 100,000 cells/well) and incubated at 37° C./5% CO2 for 20-24 hours. After an extensive wash with Low sodium HEPES-buffered saline solution (LNHBSS) (150 mM Choline Chloride, […] (Sigma), 1 mM Calcium Chloride, 5 mM Potassium Chloride, 1 mM Magnesium Chloride, 10 mM Glucose) agents diluted with LNHBSS are added to each well. (Varying concentrations of test agent may be used). The activation/radiolabel mixture contains aconitine (Sigma), and ^14C-guanidine hydrochloride (ARC).
# After loading the cells with test agent and activation/radiolabel mixture, the Scintiplates are incubated at ambient temperature. Following the incubation, the Scintplates are extensively washed with LNHBSS supplemented with guanidine (Sigma). The Scintiplates are dried and then counted using a Wallac MicroBeta TriLux (Perkin-Elmer Life Sciences). The ability of the test agent to block sodium channel activity is determined by comparing the amount of ^14C-guanidine present inside the cells expressing the different sodium channels.
# IC50 value of a test agent for a specific sodium channel may be determined using the above general method. […] The IC50 curve is calculated using the 4 Parameter Logistic Model or Sigmoidal Dose-Response Model formula (fit=(A+((B−A)/(1+((C/x)^D)))).
# The fold selectivity, factor of selectivity or multiple of selectivity, is calculated by dividing the IC50 value of the test sodium channel by the reference sodium channel, for example, Nav1.5.
# The Example numbers provided in Table 2 correspond to the Example numbers herein: […]
# [2] = tested on: Nav1.4 in CHO-K1 cells; assay type: cell-based, Chinese hamster
# [3] = tested on: Nav1.4 and 1.5 in L6 cells; assay type: cell-based, rat
# [4] = tested on: Nav1.8 in SK-N-BE2C cells; assay type: cell-based, human
# [5] = target: Nav1.2 in PC12 cells (Rattus norvegicus, UniProt P04775)
# Sequence of Nav1.2 in PC12 cells (P04775 whole entry, looked up): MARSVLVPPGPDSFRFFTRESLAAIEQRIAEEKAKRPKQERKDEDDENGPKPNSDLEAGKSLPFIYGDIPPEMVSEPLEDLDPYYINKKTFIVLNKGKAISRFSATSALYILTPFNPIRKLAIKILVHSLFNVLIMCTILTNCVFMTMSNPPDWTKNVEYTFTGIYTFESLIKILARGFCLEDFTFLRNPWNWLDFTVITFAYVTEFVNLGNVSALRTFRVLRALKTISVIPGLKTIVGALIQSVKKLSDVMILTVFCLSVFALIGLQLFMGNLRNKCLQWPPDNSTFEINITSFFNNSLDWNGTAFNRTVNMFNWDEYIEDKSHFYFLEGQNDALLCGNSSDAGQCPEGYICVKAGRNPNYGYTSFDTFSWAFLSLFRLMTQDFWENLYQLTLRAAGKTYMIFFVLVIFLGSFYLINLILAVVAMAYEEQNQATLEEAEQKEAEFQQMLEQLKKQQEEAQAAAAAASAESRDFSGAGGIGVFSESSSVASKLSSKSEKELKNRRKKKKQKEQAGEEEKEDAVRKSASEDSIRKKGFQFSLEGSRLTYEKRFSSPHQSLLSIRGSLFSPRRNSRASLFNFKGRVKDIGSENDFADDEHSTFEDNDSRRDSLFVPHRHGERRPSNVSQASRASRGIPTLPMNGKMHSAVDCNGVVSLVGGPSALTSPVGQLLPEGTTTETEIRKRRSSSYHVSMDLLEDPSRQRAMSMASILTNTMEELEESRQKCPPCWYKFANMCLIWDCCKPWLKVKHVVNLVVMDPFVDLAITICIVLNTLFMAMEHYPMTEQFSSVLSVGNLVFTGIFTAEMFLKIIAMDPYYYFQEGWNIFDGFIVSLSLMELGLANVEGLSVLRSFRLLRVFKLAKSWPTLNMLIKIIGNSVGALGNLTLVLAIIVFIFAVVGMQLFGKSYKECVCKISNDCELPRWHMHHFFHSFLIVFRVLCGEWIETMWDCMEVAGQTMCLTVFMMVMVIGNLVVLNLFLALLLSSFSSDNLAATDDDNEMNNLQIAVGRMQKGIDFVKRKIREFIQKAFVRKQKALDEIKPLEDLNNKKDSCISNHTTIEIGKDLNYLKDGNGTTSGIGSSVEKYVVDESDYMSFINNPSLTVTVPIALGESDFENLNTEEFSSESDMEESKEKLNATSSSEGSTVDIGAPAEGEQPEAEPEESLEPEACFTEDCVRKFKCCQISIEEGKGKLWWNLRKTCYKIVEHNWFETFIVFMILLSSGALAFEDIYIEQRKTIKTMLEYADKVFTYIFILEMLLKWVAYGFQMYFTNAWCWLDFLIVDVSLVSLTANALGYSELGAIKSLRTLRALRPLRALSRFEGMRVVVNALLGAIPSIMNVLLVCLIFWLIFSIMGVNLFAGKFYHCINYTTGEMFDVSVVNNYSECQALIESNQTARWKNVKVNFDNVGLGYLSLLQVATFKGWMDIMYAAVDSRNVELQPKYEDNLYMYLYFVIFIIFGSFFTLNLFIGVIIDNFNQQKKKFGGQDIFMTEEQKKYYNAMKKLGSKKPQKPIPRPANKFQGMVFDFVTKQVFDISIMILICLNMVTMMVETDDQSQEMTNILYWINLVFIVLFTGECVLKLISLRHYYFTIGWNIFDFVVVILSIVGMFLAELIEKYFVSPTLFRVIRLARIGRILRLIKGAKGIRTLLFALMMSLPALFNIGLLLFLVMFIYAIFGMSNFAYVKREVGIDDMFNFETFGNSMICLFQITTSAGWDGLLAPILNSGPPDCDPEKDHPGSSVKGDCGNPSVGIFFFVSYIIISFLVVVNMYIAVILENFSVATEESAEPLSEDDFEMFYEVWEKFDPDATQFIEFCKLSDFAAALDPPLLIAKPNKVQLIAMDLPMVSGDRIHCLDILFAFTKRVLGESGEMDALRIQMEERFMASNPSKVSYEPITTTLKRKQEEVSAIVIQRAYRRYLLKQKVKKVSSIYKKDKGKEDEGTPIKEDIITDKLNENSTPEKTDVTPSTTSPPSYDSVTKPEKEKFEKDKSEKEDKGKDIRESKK
SMILES,IC50 [1],melting point,other results
"O=C1N(CCC2CC2)c2ccccc2C12COc1cc3c(cc12)OCO3 (stereo not drawn) [Example 1, 1′-(2-cyclopropylethyl)spiro[furo[2,3-f][1,3]benzodioxole-7,3′-indol]-2′(1′H)-one]",1 to 10 nM,125 to 127 °C,
"CCCCCN1C(=O)C2(OCc3cc4c(cc32)OCO4)c2ccccc21 (stereo not drawn) [Example 20, 1′-pentyl-7H-spiro[furo[3,4-f][1,3]benzodioxole-5,3′-indol]-2′(1′H)-one]",1 to 10 nM,113 to 115 °C,
"CCCCCN1C(=O)C2(COc3cc4c(cc32)OCO4)c2c(C#N)cccc21 (stereo not drawn) [Example 30, 2′-oxo-1′-pentyl-1′,2′-dihydrospiro[furo[2,3-f][1,3]benzodioxole-7,3′-indole]-4′-carbonitrile]",10 to 100 nM,128 to 129 °C,
"CCCCCN1C(=O)C2(COc3cc(Oc4ccccc4)ccc32)c2ccccc21 (stereo not drawn) [Example 36, 1′-pentyl-6-phenoxyspiro[1-benzofuran-3,3′-indol]-2′(1′H)-one]",> 1000 nM,,
"CCCCCN1C(=O)C2(COc3cc(-c4cccnc4)ccc32)c2ccccc21 (stereo not drawn) [Example 37, 1′-pentyl-6-pyridin-3-ylspiro[1-benzofuran-3,3′-indol]-2′(1′H)-one]",> 1000 nM,,
"CCCCCN1C(=O)C2(COc3cc(-c4ccncc4)ccc32)c2ccccc21 (stereo not drawn) [Example 38, 1′-pentyl-6-pyridin-4-ylspiro[1-benzofuran-3,3′-indol]-2′(1′H)-one]",100 to 1000 nM,107 to 110 °C,
"CCCCCN1C(=O)C2(COc3cc(S(C)(=O)=O)ccc32)c2ccccc21 (stereo not drawn) [Example 39, 6-(methylsulfonyl)-1′-pentylspiro[1-benzofuran-3,3′-indol]-2′(1′H)-one]",> 1000 nM,,
"CCCCCN1C(=O)C2(COc3cc(S(=O)(=O)c4ccccc4)ccc32)c2ccccc21 (stereo not drawn) [Example 40, 1′-pentyl-6-(phenylsulfonyl)spiro[1-benzofuran-3,3′-indol]-2′(1′H)-one]",100 to 1000 nM,,
"CCCCCN1C(=O)C2(COc3ccc(Oc4ccccc4)cc32)c2ccccc21 (stereo not drawn) [Example 41, 1′-pentyl-5-phenoxyspiro[1-benzofuran-3,3′-indol]-2′(1′H)-one]",> 1000 nM,,
"CCCCCN1C(=O)C2(COc3ccc(-c4cccnc4)cc32)c2ccccc21 (stereo not drawn) [Example 48, 1′-pentyl-5-pyridin-3-ylspiro[1-benzofuran-3,3′-indol]-2′(1′H)-one]",100 to 1000 nM,,
"CCCCCN1C(=O)C2(COc3ccc(-c4cncnc4)cc32)c2ccccc21 (stereo not drawn) [Example 49, 1′-pentyl-5-pyrimidin-5-ylspiro[1-benzofuran-3,3′-indol]-2′(1′H)-one]",100 to 1000 nM,115 to 117 °C,
"CCCCCN1C(=O)C2(COc3ccc(-c4ccncc4)cc32)c2ccccc21 (stereo not drawn) [Example 50, 1′-pentyl-5-pyridin-4-ylspiro[1-benzofuran-3,3′-indol]-2′(1′H)-one]",100 to 1000 nM,,
"CCCCCN1C(=O)C2(COc3ccc(C#N)cc32)c2ccccc21 (stereo not drawn) [Example 51, 2′-oxo-1′-pentyl-1′,2′-dihydrospiro[1-benzofuran-3,3′-indole]-5-carbonitrile]",100 to 1000 nM,,
"O=C(CN1C(=O)C2(COc3ccc(-c4cccnc4)cc32)c2ccccc21)Nc1ccccc1F (stereo not drawn) [Example 52, N-(2-fluorophenyl)-2-(2′-oxo-5-pyridin-3-ylspiro[1-benzofuran-3,3′-indol]-1′(2′H)-yl)acetamide]",100 to 1000 nM,98 to 100 °C,
"O=C1N(C(c2ccccc2)c2ccccc2)c2ccccc2C12COc1ccc(-c3cccnc3)cc12 (stereo not drawn) [Example 54, 1′-(diphenylmethyl)-5-pyridin-3-ylspiro[1-benzofuran-3,3′-indol]-2′(1′H)-one]",> 1000 nM,204 to 207 °C,
"CC(C)(C)OC(=O)N1CCCC(c2ccc3c(c2)C2(CO3)C(=O)Nc3ccccc32)C1 (stereo not drawn) [Example 55, tert-butyl 3-(2′-oxo-1′,2′-dihydrospiro[1-benzofuran-3,3′-indol]-5-yl)piperidine-1-carboxylate]",> 1000 nM,120 to 123 °C,
"O=C(NCCN1C(=O)C2(COc3cc4c(cc32)OCO4)c2ccccc21)c1ccccc1OC(F)(F)F (stereo not drawn) [Example 59, N-[2-(2′-oxospiro[furo[2,3-f][1,3]benzodioxole-7,3′-indol]-1′(2′H)-yl)ethyl]-2-(trifluoromethoxy)benzamide]",100 to 1000 nM,183 to 184 °C,
NC1=N[C@H](O)[C@H]2[C@H]3O[C@]4(O)O[C@@H]([C@@H](O)[C@@]2(N1)[C@@H]4O)[C@]3(O)CO [TTX],,,block of [14C] Guanidine influx by TTX [2]: Guanidine influx was completely; block of [14C] Guanidine influx by TTX [3]: partially blocked by TTX (Nav1.5; block of [14C] Guanidine influx by TTX [4]: TTX partially blocked influx; block of [14C] Guanidine influx by TTX [5]: Guanidine influx was completely

# Source: patent publication US8466188B2, “Use of spiro-oxindole compounds as therapeutic agents” (Xenon Pharmaceuticals Inc., priority 2006, dated 2013)
